These results are taken from PMC9964459, “Nornidulin, A New Inhibitor of Plasmodium falciparum Malate: Quinone Oxidoreductase (PfMQO) from Indonesian Aspergillus sp. BioMCC f.T.8501” (Pharmaceuticals, 2023).

This assay deals with T1, Plasmodium falciparum malate:quinone oxidoreductase (PfMQO) (Plasmodium falciparum, UniProt C6KT09).
T1 construct: gene PF3D7_0616800; PfMQO-membrane fraction from PfMQO-expressing recombinant Escherichia coli
T1 sequence (C6KT09 1-521): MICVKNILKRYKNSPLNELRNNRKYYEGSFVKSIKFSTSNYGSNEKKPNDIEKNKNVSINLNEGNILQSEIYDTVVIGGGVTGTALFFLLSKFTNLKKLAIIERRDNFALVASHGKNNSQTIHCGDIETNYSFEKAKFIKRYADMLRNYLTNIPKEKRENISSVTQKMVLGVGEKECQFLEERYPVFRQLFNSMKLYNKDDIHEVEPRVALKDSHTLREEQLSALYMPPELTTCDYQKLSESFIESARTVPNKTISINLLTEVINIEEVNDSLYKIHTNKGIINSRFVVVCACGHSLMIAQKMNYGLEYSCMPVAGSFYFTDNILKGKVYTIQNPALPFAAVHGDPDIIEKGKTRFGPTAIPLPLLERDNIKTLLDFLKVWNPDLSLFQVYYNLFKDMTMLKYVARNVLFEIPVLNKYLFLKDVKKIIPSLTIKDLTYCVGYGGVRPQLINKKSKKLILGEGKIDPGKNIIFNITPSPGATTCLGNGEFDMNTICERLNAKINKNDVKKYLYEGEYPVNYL
The assay is described as follows: DCIP-reduction enzyme assay (A600, malate/decylubiquinone) with recombinant PfMQO membrane fraction. It is filed as biochemical.

As for `C/C=C(\C)c1c(Cl)c(O)c(C)c2c1Oc1c(Cl)c(O)c(Cl)c(C)c1C(=O)O2` [Fr10, nornidulin], the IC50 amounted to 51 µM.
